{
  "source": "patent US20120321656A1",
  "about": "“OLIGOPEPTIDES AND THEIR USE FOR TREATING INFECTIOUS DISEASES” (priority 2011, published 2012)",
  "tested_on": "BALB/c female mouse",
  "test": "Immune response to individual peptide: mouse immunization, then indirect solid-phase immunoenzymatic assay (ELISA) of serum antibodies to peptide",
  "format": "in vivo",
  "conditions": "BALB/c mice, i.p. 100 μg peptide+Str-HRP with Freund's adjuvant; for Immunogenicity group: serum day 38, ELISA; for Overall ranking of antigenicity / Antigenicity compared to best ranking peptide (Average value calculated by removing outlier which exceeded 1 SD value) / Antigenicity compared to best ranking peptide (Median value): serum day 38, ELISA A450; for Antigenicity compared to best ranking peptide (Average value calculated by removing outlier which exceeded 1 SD value): average without outliers >1 SD",
  "data": [
    {"substance": "A-G-R-R-C-L-D-A-G (AGRRCLDAG; Mycobacterium Tuberculosis Synthetic Peptide) [SEQ ID 11, oligopeptide from MT Cytotoxin/Hemolysin]", "values": [
      {"measurement": "Immunogenicity group", "value": "intermediate immunogenicity"},
      {"measurement": "Overall ranking of antigenicity", "value": 6},
      {"measurement": "Antigenicity compared to best ranking peptide (Average value calculated by removing outlier which exceeded 1 SD value)", "value": 16.5},
      {"measurement": "Antigenicity compared to best ranking peptide (Median value)", "value": 34.2}
    ]},
    {"substance": "G-D-N-I-P-A-K-F-L-E-G-T-L-R-T (GDNIPAKFLEGTLRT; Mycobacterium Tuberculosis Synthetic Peptide) [SEQ ID 7, oligopeptide from MT Antigen 85 (Ag 85)]", "values": [
      {"measurement": "Immunogenicity group", "value": "intermediate immunogenicity"},
      {"measurement": "Overall ranking of antigenicity", "value": 7},
      {"measurement": "Antigenicity compared to best ranking peptide (Average value calculated by removing outlier which exceeded 1 SD value)", "value": 11.6},
      {"measurement": "Antigenicity compared to best ranking peptide (Median value)", "value": 73.5}
    ]},
    {"substance": "L-R-A-Q-D-D-Y-N-G-W-D-I (LRAQDDYNGWDI; Mycobacterium Tuberculosis Synthetic Peptide) [SEQ ID 4, oligopeptide from MT Antigen 85 (Ag 85)]", "values": [
      {"measurement": "Immunogenicity group", "value": "relatively strong immunogenicity"},
      {"measurement": "Overall ranking of antigenicity", "value": 2},
      {"measurement": "Antigenicity compared to best ranking peptide (Average value calculated by removing outlier which exceeded 1 SD value)", "value": 1.4},
      {"measurement": "Antigenicity compared to best ranking peptide (Median value)", "value": 1.0}
    ]},
    {"substance": "N-E-L-G-A-S-Q-A-I-D-L-L-K-G-V (NELGASQAIDLLKGV; Mycobacterium Tuberculosis Synthetic Peptide) [SEQ ID 9, oligopeptide from MT Exported Repetitive Protein (Erp)]", "values": [
      {"measurement": "Immunogenicity group", "value": "intermediate immunogenicity"},
      {"measurement": "Overall ranking of antigenicity", "value": 5},
      {"measurement": "Antigenicity compared to best ranking peptide (Average value calculated by removing outlier which exceeded 1 SD value)", "value": 16.1},
      {"measurement": "Antigenicity compared to best ranking peptide (Median value)", "value": 22.3}
    ]},
    {"substance": "S-D-P-A-W-K-R-N-D-P-M-V-Q-I-P-R-L (SDPAWKRNDPMVQIPRL; Mycobacterium Tuberculosis Synthetic Peptide) [SEQ ID 6, oligopeptide from MT Antigen 85 (Ag 85)]", "values": [
      {"measurement": "Immunogenicity group", "value": "relatively strong immunogenicity"},
      {"measurement": "Overall ranking of antigenicity", "value": 1},
      {"measurement": "Antigenicity compared to best ranking peptide (Average value calculated by removing outlier which exceeded 1 SD value)", "value": 1.0},
      {"measurement": "Antigenicity compared to best ranking peptide (Median value)", "value": 1.1}
    ]},
    {"substance": "S-M-G-R-D-I-K-V-Q-F-Q-G (SMGRDIKVQFQG; Mycobacterium Tuberculosis Synthetic Peptide) [SEQ ID 3, oligopeptide from MT Antigen 85 (Ag 85)]", "values": [
      {"measurement": "Immunogenicity group", "value": "intermediate immunogenicity"},
      {"measurement": "Overall ranking of antigenicity", "value": 11},
      {"measurement": "Antigenicity compared to best ranking peptide (Average value calculated by removing outlier which exceeded 1 SD value)", "value": 26.5},
      {"measurement": "Antigenicity compared to best ranking peptide (Median value)", "value": 35.8}
    ]},
    {"substance": "S-R-Y-N-E-L-V-E-R-G-E-A [SEQ ID 2]", "values": [
      {"measurement": "Immunogenicity group", "value": "intermediate immunogenicity"},
      {"measurement": "Overall ranking of antigenicity", "value": 4},
      {"measurement": "Antigenicity compared to best ranking peptide (Average value calculated by removing outlier which exceeded 1 SD value)", "value": 10.6},
      {"measurement": "Antigenicity compared to best ranking peptide (Median value)", "value": 15.0}
    ]},
    {"substance": "T-D-S-E-R-A-W-V-S-R-G-A (TDSERAWVSRGA; Mycobacterium Tuberculosis Synthetic Peptide) [SEQ ID 10, oligopeptide from MT Cytotoxin/Hemolysin]", "values": [
      {"measurement": "Immunogenicity group", "value": "intermediate immunogenicity"},
      {"measurement": "Overall ranking of antigenicity", "value": 10},
      {"measurement": "Antigenicity compared to best ranking peptide (Average value calculated by removing outlier which exceeded 1 SD value)", "value": 27.6},
      {"measurement": "Antigenicity compared to best ranking peptide (Median value)", "value": 24.5}
    ]},
    {"substance": "T-D-T-R-S-R-V-E-E-S-R-A-R-L [SEQ ID 1]", "values": [
      {"measurement": "Immunogenicity group", "value": "intermediate immunogenicity"},
      {"measurement": "Overall ranking of antigenicity", "value": 8},
      {"measurement": "Antigenicity compared to best ranking peptide (Average value calculated by removing outlier which exceeded 1 SD value)", "value": 44.5},
      {"measurement": "Antigenicity compared to best ranking peptide (Median value)", "value": 38.1}
    ]},
    {"substance": "T-Y-K-W-E-T-F-L-T-R-E-M-P-A (TYKWETFLTREMPA; Mycobacterium Tuberculosis Synthetic Peptide) [SEQ ID 5, oligopeptide from MT Antigen 85 (Ag 85)]", "values": [
      {"measurement": "Immunogenicity group", "value": "intermediate immunogenicity"},
      {"measurement": "Overall ranking of antigenicity", "value": 9},
      {"measurement": "Antigenicity compared to best ranking peptide (Average value calculated by removing outlier which exceeded 1 SD value)", "value": 21.8},
      {"measurement": "Antigenicity compared to best ranking peptide (Median value)", "value": 47.4}
    ]},
    {"substance": "V-Y-E-S-T-E-T-T-E-R-P-E-H-H-E-F-K-Q-A (VYESTETTERPEHHEFKQA; Mycobacterium Tuberculosis Synthetic Peptide) [SEQ ID 8, oligopeptide from MT Exported Repetitive Protein (Erp)]", "values": [
      {"measurement": "Immunogenicity group", "value": "relatively strong immunogenicity"},
      {"measurement": "Overall ranking of antigenicity", "value": 3},
      {"measurement": "Antigenicity compared to best ranking peptide (Average value calculated by removing outlier which exceeded 1 SD value)", "value": 4.6},
      {"measurement": "Antigenicity compared to best ranking peptide (Median value)", "value": 4.5}
    ]}
  ]
}
